Values quoted from earlier work, collected in US9603803B2, “Process for preparing spray dried formulations of 4-[[6-amino-5-bromo-2-[(4-cyanophenyl)amino]-4-pyrimidinyl]oxy]-3,5-dimethylbenzonitrile” (JANSSEN SCIENCES IRELAND UC, priority 2006, dated 2017).

Columns and labels:
[1] = system: many mutated variants
[2] = system: wild type HIV

Q: With `Cc1cc(C#N)cc(C)c1Oc1nc(Nc2ccc(C#N)cc2)nc(N)c1Br` [TMC125, 4-[[6-amino-5-bromo-2-[(4-cyanophenyl)amino]-4-pyrimidinyl]oxy]-3,5-dimethylbenzonitrile] as the compound, how does the “activity against many mutated variants” value [1] read?
A: Its value is “pronounced activity”.

Q: And the water-solubility?
A: The water-solubility was “poor”.

Q: And the “activity against wild type HIV” value [2]?
A: The value was “pronounced activity”.
